Assay results as given in patent US20230194505A1, “DETERMINING DRUG EFFECTS USING COMBINATION OF MEASUREMENTS” (Organos, Inc., priority 2020, published 2023).
Read-outs that look alike come from different tables or passages of the source.

Tests used:
hiPSC-CMs = assay: Conduction velocity computed from measurements of the extracellular potential in a collection of hiPSC-CMs; assay type: cell-based, human; conditions: doses 1-10 μM
Procedure: From the U data 430, we include the value at each time point and each electrode (see (14)), and the conduction velocity is computed using the time points in which U crosses 0 mV after the peak in different electrodes (see (15) and FIG. 1). Given that U is measured at each electrode, another metric can be the time tcv for the U data 430 to go back to zero. Another metric uses the measurements at each of the time points (shown as separate dots 432; a sum of the square of the differences (or absolute value) between the model output and measured values can be summed.
where cv denotes the conduction velocity (in cm/s) computed from U recorded in the electrodes. More specifically, the conduction velocity is computed as the distance between the center of the two electrodes marked as a and b in FIG. 1 divided by the time between U crosses 0 mV after the peak in these two electrodes (see FIG. 4). The two electrodes used could be any two electrodes in the simulation.
One of the advantages of including measurements of the extracellular potential in addition to optical measurements of V and Ca in the inversion procedure is that the extracellular measurements can be used to estimate the conduction velocity of the cell collection. This information could be useful for determining drug effects on the INa current (see FIG. 6). […]

human cardiomyocytes = conditions: cited from earlier work
[1] = tested on: rabbit ventricular myocyte; conditions: data from Baczkó et al. 2016, cited from earlier work
dog cardiomyocytes = conditions: 50 nM, paced at 1 Hz, data from Jost et al. 2013; cited from earlier work
zebrafish cardiomyocytes = conditions: 1 μM, data from Nemtsas et al. 2010; cited from earlier work
[2] = 30 μM, data from Baczkó et al. 2016 (B)
[3] = 30 μM, data from Orvos et al. 2019 (O)
[4] = 50 nM, paced at 1 Hz, data from Jost et al. 2013
[5] = 1 μM, data from Bussek et al. (B)
[6] = 1 μM, data from Jost et al. 2005 (J)

O=C(NCC1CCCCN1)c1cc(OCC(F)(F)F)ccc1OCC(F)(F)F (stereo not drawn) [Flecainide]
Effect of increasing drug dose on conduction velocity (hiPSC-CMs): the conduction velocity is decreased

CC(C)NCC(O)c1ccc(NS(C)(=O)=O)cc1 (stereo not drawn) [sotalol]
APD50, Human, drug measured (B) (change vs control) (human cardiomyocytes; [2]): +32.3% | APD90, Human, drug measured (B) (change vs control) (human cardiomyocytes; [2]): +37.5% | APD50, Human, drug measured (O) (change vs control) (human cardiomyocytes; [3]): +20.6% | APD90, Human, drug measured (O) (change vs control) (human cardiomyocytes; [3]): +28.2% | APD50, Rabbit, drug measured (change vs control) ([1]; 10 μM): +21.2% | APD90, Rabbit, drug measured (change vs control) ([1]; 10 μM): +19.6% | APD50, Rabbit, drug measured (change vs control) ([1]; 52 μM): +54.3% | APD90, Rabbit, drug measured (change vs control) ([1]; 52 μM): +54.1%

CN(CCOc1ccc(NS(C)(=O)=O)cc1)CCc1ccc(NS(C)(=O)=O)cc1 [dofetilide]
APD50, Dog, drug measured (change vs control) (dog cardiomyocytes): +17.5% | APD50, Human, drug measured (change vs control) (human cardiomyocytes; [4]): +33.3% | APD90, Human, drug measured (change vs control) (human cardiomyocytes; [4]): +44.3%

Cc1cccc(CCN2CCC(C(=O)c3ccc(NS(C)(=O)=O)cc3)CC2)n1 [E-4031]
APD50, Human, drug measured (B) (change vs control) (human cardiomyocytes; [5]): +27.7% | APD90, Human, drug measured (B) (change vs control) (human cardiomyocytes; [5]): +31.2% | APD50, Human drug measured (J) (change vs control) (human cardiomyocytes; [6]): +54.2% | APD90, Human drug measured (J) (change vs control) (human cardiomyocytes; [6]): +65.1% | APD50, Zebrafish drug measured (change vs control) (zebrafish cardiomyocytes): +38.7% | APD90, Zebrafish drug measured (change vs control) (zebrafish cardiomyocytes): +24.1%
